This is an account of results in US20260151375A1, “CDK2 INHIBITORS AND METHODS OF USING THE SAME” (Cedilla Therapeutics, Inc., priority 2022, published 2026).

Like-named read-outs stand apart in the source and are kept apart here.

For one experiment, the target named is T1, CDK2/Cyclin E1 (Homo sapiens, UniProt P24941).
T1 construct: purchased 14-475
The experiment can be described thus: Caliper Assay (LabChip EZ Reader mobility shift assay), inhibition of CDK2/Cyclin E1 activity. In kind it is biochemical. The settings on record: 2.5 nM CDK2/Cyclin E1(14-475), 100 μM ATP, 30 min preincubation; read-out: Caliper Assay (CDK2/CCNE1): IC50. How it is done:
Inhibition of CDK2/Cyclin E1 activity in the presence of compounds of the present disclosure was evaluated using a Caliper LabChip® EZ Reader mobility shift assay. In the assay, activated CDK2/Cyclin E1 catalyzes the phosphorylation of a fluorescently tagged peptide 5-FAM-QSPKKG-CONH2 (PerkinElmer, FL Peptide 18) which induces a difference in capillary electrophoresis mobility. The peptide substrate and product were measured, and the conversion ratio was used to determine the inhibition (as % activity and IC50 values) of CDK2/Cyclin E1. Reactions contained 50 mM HEPES pH 7.5, 10 mM MgCl2, 1 mM EDTA, 2 mM DTT, 0.01% Brij35, 0.5 mg/mL BSA, 0.1% DMSO, 2.5 nM CDK2/Cyclin E1(14-475), 100 μM ATP, and 1.5 μM fluorescent peptide substrate.
Dose titrations of inhibitors in 100% DMSO were combined with 3.25 nM CDK2/Cyclin E1(14-475) and 130 μM of ATP in reaction buffer. The mixtures were incubated for 30 minutes before the addition of fluorescent peptide substrate to initiate the kinase reaction. The final conditions were 2.5 nM CDK2/Cyclin E1(14-475), 100 μM ATP, and 1.5 μM fluorescent peptide. The reactions were stopped after 100 minutes with the addition of EDTA (6 mM final EDTA concentration). The stopped reactions were analyzed on a Caliper LabChip© EZ Reader II. The conversion ratios were normalized to yield % activity, plotted against compound concentration, and fit to a four-parameter equation to determine the IC50 for each compound.

The test system of a further experiment is Kuramochi cells. The experiment can be described thus: IncuCyte Kuramochi Assay (cell proliferation). In kind it is cell-based. To be noted: Kuramochi cells labeled with mApple-H2B, cell count, read-out: IncuCyte - Kuramochi RB-WT: IC50. As to the method:
IncuCyte® assay was used to measure the effect of disclosed compounds on cell proliferation. Fluorescent microscopy images of cells were taken immediately after compound treatment and 72 hours later. Image analysis software was used to obtain cell counts as a function of compound concentration. Kuramochi cells labeled with mApple-H2B were seeded on 384-well assay-ready plates. Plates were placed in an IncuCyte® (Sartorius) and scanned at 0 and 72 hours. IncuCyte® software was used to count the number of fluorescent nuclei in each well. The fold change in cell count from 0 to 72 hours in wells treated with increasing compounds concentrations (10 pts, ½ log dilution, 20 μM top concentration) was normalized to DMSO control wells. The normalized cell counts were fit with dose response curves and a […] was calculated.

For the compound `O=C(c1cncs1)N1CC(c2nc3ccc(Oc4ccccc4)cc3o2)C2(C1)CN(C(=O)[C@H]1CC1(F)F)C2` (stereo partly drawn) [I-144, (2-((R)-2,2-difluorocyclopropane-1-carbonyl)-8-(6-phenoxybenzo[d]oxazol-2-yl)-2,6-diazaspiro[3.4]octan-6-yl)(thiazol-5-yl)methanone], the IC50 on CDK2/Cyclin E1 is 1 to 10 µM; in the experiment with Kuramochi cells (72 h) it was more than 10 µM.

On to `CC1(C)C[C@@H]1C(=O)N1CC2(CN(C(=O)c3cncs3)CC2c2nnc(C(F)(F)c3cccc4ccccc34)o2)C1` (stereo partly shown) [I-73], for which the IC50 at CDK2/Cyclin E1 was 0.1 to 1 µM; with Kuramochi cells (72 h) it was more than 10 µM.

As for `O=C([C@H]1CC1(F)F)N1CC(c2nnc(C(F)(F)c3ccc(Cl)c(Cl)c3)o2)C2(C1)CN(C(=O)[C@H]1CC1(F)F)C2` (stereo partly shown) [I-171], the IC50 on CDK2/Cyclin E1 and in the experiment with Kuramochi cells (72 h) was more than 10 µM in each case.

Take `CC(c1cccc(C2CCOCC2)n1)c1nnc(C2CN(C(=O)c3cncs3)CC23CN(C(=O)[C@H]2CC2(C)C)C3)o1` (stereo partly shown) [I-78]: the IC50 was 0.1 to 1 µM at CDK2/Cyclin E1 and more than 10 µM with Kuramochi cells (72 h).

In the case of `O=C(c1cncs1)N1CC(c2nnc(C(F)(F)c3ccc(Cl)c(Cl)c3)o2)C2(C1)CN(C(=O)[C@H]1CCCO1)C2` (stereo partly shown) [I-157], the IC50 was 1 to 10 µM at CDK2/Cyclin E1 and more than 10 µM with Kuramochi cells (72 h).

For the compound `O=C(c1cncs1)N1CC(c2nnc(C(F)(F)c3ccc(Cl)c(Cl)c3)o2)C2(C1)CN(c1ncccn1)C2` (stereo not shown) [I-59, (8-(5-((3,4-dichlorophenyl)difluoromethyl)-1,3,4-oxadiazol-2-yl)-2-(pyrimidin-2-yl)-2,6-diazaspiro[3.4]octan-6-yl)(thiazol-5-yl)methanone], the IC50 at CDK2/Cyclin E1 and in the experiment on Kuramochi cells (72 h) was more than 10 µM throughout.

As for `CC1(C)C[C@@H]1C(=O)N1CC2(CN(C(=O)c3cccnn3)CC2c2nnc(C(F)(F)c3ccc(Cl)c(Cl)c3)o2)C1` (stereo partly shown) [I-53], the IC50 on CDK2/Cyclin E1 and in the experiment with Kuramochi cells (72 h) was more than 10 µM in each case.

As for `CC1(C)C[C@@H]1C(=O)N1CC2(CN(C(=O)c3ncccn3)CC2c2nnc(C(F)(F)c3ccc(Cl)c(Cl)c3)o2)C1` (stereo partly shown) [I-46], the IC50 at CDK2/Cyclin E1 and in the experiment on Kuramochi cells (72 h) was more than 10 µM each time.

As to `CC1(C)C[C@@H]1C(=O)N1CC2(CN(C(=O)c3cnn(Cc4ccccc4)c3)CC2c2nnc(Cc3ccc(Cl)c(Cl)c3)o2)C1` (stereo partly shown) [I-4], the IC50 at CDK2/Cyclin E1 was 1 to 10 µM; with Kuramochi cells (72 hours) it was more than 10 µM.

Regarding `O=C(c1cc(C(F)(F)F)n[nH]1)N1CC(c2nnc(C(F)(F)c3ccc(Cl)c(Cl)c3)o2)C2(C1)CN(C(=O)[C@H]1CC1(F)F)C2` (stereo partly shown) [I-161], the IC50 on CDK2/Cyclin E1 is more than 10 µM; in the experiment on Kuramochi cells (72 h) it was 5 to 10 µM.

As for `CC1(C)C[C@@H]1C(=O)N1CC2(CN(C(=O)c3cnccn3)CC2c2nnc(C(F)(F)c3ccc(Cl)c(Cl)c3)o2)C1` (single isomer, unassigned) [I-45 1st], the IC50 was 0.1 to 1 µM at CDK2/Cyclin E1 and more than 10 µM in the experiment with Kuramochi cells (72 h).

On to `CC1(C)C[C@@H]1C(=O)N1CC2(CN(C(=O)c3cnc(Br)s3)CC2c2nnc(C(F)(F)c3ccc(Cl)c(Cl)c3)o2)C1` (stereo partly shown) [I-199], for which the IC50 on CDK2/Cyclin E1 is more than 10 µM; with Kuramochi cells (72 h) it was 5 to 10 µM.

With `CC1(C)C[C@@H]1C(=O)N1CC2(CN(C(=O)c3cncs3)CC2c2nnc(C(F)(F)c3ccc(F)c(F)c3)o2)C1` (stereo partly shown) [I-76], the IC50 was 0.1 to 1 µM at CDK2/Cyclin E1 and more than 10 µM in the experiment with Kuramochi cells (72 h).

In the case of `CC(C)(CO)C(=O)N1CC2(CN(C(=O)c3cncs3)CC2c2nnc(C(F)(F)c3ccc(Cl)c(Cl)c3)o2)C1` (stereo not shown) [I-189], the values for the IC50 on CDK2/Cyclin E1 and with Kuramochi cells (72 h) were 1 to 10 µM and more than 10 µM, respectively.

On to `Cc1cc(C)n(Cc2nc(C3CN(C(=O)c4cnn(Cc5ccccc5)c4)CC34CN(C(=O)[C@H]3CC3(C)C)C4)no2)n1` (stereo partly shown) [I-85], for which the IC50 was 1 to 10 µM on CDK2/Cyclin E1 and more than 10 µM in the experiment with Kuramochi cells (72 h).

For the compound `CC1(C)C[C@@H]1C(=O)N1CC2(CN(C(=O)c3cnn(Cc4ccccc4)c3)CC2c2nnc(Cc3ccc(Cl)c(Cl)c3)o2)C1` (stereo partly shown) [I-24], the values for the IC50 on CDK2/Cyclin E1 and with Kuramochi cells (72 h) were 0.1 to 1 µM and 5 to 10 µM, respectively.

For the compound `O=C(c1cncs1)N1CC(c2nnc(Cc3cccc(C4CCOCC4)n3)o2)C2(C1)CN(c1ncco1)C2` (stereo not shown) [I-80], the IC50 on CDK2/Cyclin E1 and with Kuramochi cells (72 h) was more than 10 µM throughout.

For `COC(=O)c1coc(C2CN(C(=O)c3cnn(Cc4ccccc4)c3)CC23CN(C(=O)[C@H]2CC2(C)C)C3)n1` (stereo partly drawn) [I-86, methyl 2-(6-(1-benzyl-1H-pyrazole-4-carbonyl)-2-((S)-2,2-dimethylcyclopropane-1-carbonyl)-2,6-diazaspiro[3.4]octan-8-yl)oxazole-4-carboxylate], the IC50 at CDK2/Cyclin E1 and in the experiment on Kuramochi cells (72 h) was more than 10 µM throughout.

Regarding `CC(C)(c1cc[nH]n1)c1nc(C2CN(C(=O)c3cncs3)CC23CN(C(=O)[C@H]2CC2(C)C)C3)no1` (stereo partly shown) [I-79], the figures for the IC50 on CDK2/Cyclin E1 and with Kuramochi cells (72 h) were 1 to 10 µM and more than 10 µM, respectively.

For `CC1(C)C[C@@H]1C(=O)N1CC2(CN(C(=O)c3cncs3)CC2(F)c2nnc(C(F)(F)c3ccc(Cl)c(Cl)c3)o2)C1` (single isomer, unassigned) [I-38 3rd], the IC50 on CDK2/Cyclin E1 and in the experiment with Kuramochi cells (72 hours) was more than 10 µM in each case.

For `O=C(C1CCOCC1)N1CC(c2nnc(C(F)(F)c3ccc(Cl)c(Cl)c3)o2)C2(C1)CN(C(=O)[C@H]1CC1(F)F)C2` (stereo partly shown) [I-158], the IC50 at CDK2/Cyclin E1 and in the experiment with Kuramochi cells (72 h) was more than 10 µM in each case.

Regarding `COc1ccc(C2CCOCC2)nc1Cc1nnc(C2CN(C(=O)c3cncs3)CC23CN(C(=O)[C@H]2CC2(C)C)C3)o1` (stereo partly shown) [I-55], the values for the IC50 on CDK2/Cyclin E1 and in the experiment with Kuramochi cells (72 h) were 0.1 to 1 µM and more than 10 µM, respectively.

In the case of `CC(C)(c1coc(C2CCCC2)n1)c1nc(C2CN(C(=O)c3cncs3)CC23CN(C(=O)[C@H]2CC2(C)C)C3)no1` (stereo partly shown) [I-62], the IC50 on CDK2/Cyclin E1 was 0.01 to 0.1 µM; in the experiment with Kuramochi cells (72 h), 5 to 10 µM.

Regarding `O=C(CC(F)(F)F)N1CC(c2nnc(C(F)(F)c3ccc(Cl)c(Cl)c3)o2)C2(C1)CN(C(=O)CC(F)(F)F)C2` (stereo not shown) [I-203], the IC50 at CDK2/Cyclin E1 and in the experiment on Kuramochi cells (72 h) was more than 10 µM in each case.

Consider `CC1(C)CC1C(=O)N1CC2(CN(C(=O)c3cncs3)CC2(F)c2nnc(C(F)(F)c3ccc(Cl)c(Cl)c3)o2)C1` (single isomer, unassigned) [I-38 1st], for which the IC50 on CDK2/Cyclin E1 and in the experiment on Kuramochi cells (72 h) was more than 10 µM each time.

Take `Cc1nc(C)c(C(=O)N2CC(c3nnc(C(C)c4cccc(C5(C(F)(F)F)CC5)n4)o3)C3(C2)CN(C(=O)[C@H]2CC2(C)C)C3)s1` (stereo partly shown) [I-104]: the figures for the IC50 on CDK2/Cyclin E1 and with Kuramochi cells (72 h) were 0.1 to 1 µM and more than 10 µM, respectively.

Regarding `CC1(C)C[C@@H]1C(=O)N1CC2(C1)CN(c1ncnc3ncsc13)CC2c1nnc(C(F)(F)c2ccc(Cl)c(Cl)c2)o1` (stereo partly drawn) [I-192, (8-(5-((3,4-dichlorophenyl)difluoromethyl)-1,3,4-oxadiazol-2-yl)-6-(thiazolo[4,5-d]pyrimidin-7-yl)-2,6-diazaspiro[3.4]octan-2-yl)((S)-2,2-dimethylcyclopropyl)methanone], the IC50 was in the range of 1 to 10 µM on CDK2/Cyclin E1 and 5 to 10 µM in the experiment with Kuramochi cells (72 h).

Take `CC1(C)C[C@@H]1C(=O)N1CC2(CN(C(=O)c3cncs3)CC2c2cn(Cc3ccc(C(F)(F)F)cc3)nn2)C1` (stereo partly shown) [I-202]: the IC50 on CDK2/Cyclin E1 and with Kuramochi cells (72 h) was more than 10 µM throughout.

As for `CC1(C)C[C@@H]1C(=O)N1CC2(CN(C(=O)c3cncs3)CC2c2nnc(Cc3cc4ccccc4[nH]3)o2)C1` (stereo partly shown) [I-26], the values for the IC50 at CDK2/Cyclin E1 and in the experiment with Kuramochi cells (72 h) were 1 to 10 µM and more than 10 µM, respectively.

In the case of `CC1(C)C[C@@H]1C(=O)N1CC2(CN(C(=O)c3cncs3)CC2c2nnc(Cc3ccc4c(c3)OCCO4)o2)C1` (stereo partly shown) [I-27], the figures for the IC50 on CDK2/Cyclin E1 and with Kuramochi cells (72 h) were 0.1 to 1 µM and more than 10 µM, respectively.

Take `CC1(C)C[C@@H]1C(=O)N1CC2(CN(C(=O)c3cnc(C#N)s3)CC2c2nnc(C(F)(F)c3ccc(Cl)c(Cl)c3)o2)C1` (stereo partly shown) [I-185]: the IC50 at CDK2/Cyclin E1 is more than 10 µM; with Kuramochi cells (72 h), 5 to 10 µM.

Take `CC(c1nnc(C2CN(C(=O)c3cncs3)CC23CN(C(=O)[C@H]2CC2(C)C)C3)o1)n1ccc(C2CCCC2)n1` (stereo partly shown) [I-96]: the IC50 at CDK2/Cyclin E1 was 0.01 to 0.1 µM; in the experiment on Kuramochi cells (72 h) it was more than 10 µM.

As to `CC1(C)C[C@@H]1C(=O)N1CC2(CN(C(=O)c3cncs3)CC2c2nnc(C(F)(F)c3ccccc3)o2)C1` (stereo partly shown) [I-70], the IC50 is 1 to 10 µM at CDK2/Cyclin E1 and more than 10 µM in the experiment with Kuramochi cells (72 h).

Take `CC1(C)C[C@@H]1C(=O)N1CC2(CN(C(=O)c3cnn(Cc4ccccc4)c3)CC2c2noc(Cc3ccc(Cl)cc3)n2)C1` (stereo partly shown) [I-1]: the figures for the IC50 on CDK2/Cyclin E1 and in the experiment on Kuramochi cells (72 h) were 0.1 to 1 µM and 5 to 10 µM, respectively.

For `CC1(C)C[C@@H]1C(=O)N1CC2(CN(C(=O)c3cnn(Cc4ccccc4)c3)CC2c2nnc(Cc3cncnc3)o2)C1` (stereo partly drawn) [I-14, (1-benzyl-1H-pyrazol-4-yl)(2-((S)-2,2-dimethylcyclopropane-1-carbonyl)-8-(5-(pyrimidin-5-ylmethyl)-1,3,4-oxadiazol-2-yl)-2,6-diazaspiro[3.4]octan-6-yl)methanone], the IC50 was 1 to 10 µM on CDK2/Cyclin E1 and more than 10 µM in the experiment on Kuramochi cells (72 h).
